One experiment deals with Cryptococcus neoformans. Description: Antifungal activity in vitro, C. neoformans (microdilution). Format: cell-based. To be noted: 48 hours, 27° C., read-out: IC50 for C. neoformans after 48 hours (growth inhibition). On the procedure: (§1) Antifungal activity in vitro The compounds were tested for antifungal activity against Candida albicans, Cryptococcus neoformans and Aspergillus fumigatus using a microdilution method on microtitre plates (96 wells per plate). Yeast supplemented with 1% glucose and 0.25% di-potassium phosphate was used for the three fungal strains. The fungal cells were inoculated at 3×10^4 CFU (Colony Forming Unit) in […] of medium per well. The medium contained increasing concentrations of test substance. After incubation at 27° C. for 24 or 48 hours the turbidity in each well was measured by a microtitre plate reader. The growth inhibition was calculated in comparison to (without test substance). The IC50 value given in the following Table is the concentration of test substance at which the growth is inhibited by 50%.

The subject of another experiment is Candida albicans. Description: Antifungal activity in vitro, C. albicans (microdilution). It counts as cell-based. To be noted: 27° C. On the procedure:
as §1

The next experiment has as its system Aspergillus fumigatus. In words: Antifungal activity in vitro, A. fumigatus (microdilution). It counts as cell-based. To be noted: 48 hours, 27° C., read-out: IC50 for A. fumigatus after 48 hours (growth inhibition). The method, then:
as §1
On the technique in general: In broth dilution the organism is exposed to a series of concentrations in liquid medium.

Experiment [1] is described as follows: Cholesterol lowering in fat-fed hamsters. Format: in vivo, Male golden hamsters. As to conditions: 200 μmol (about 70-120 mg/kg/day) in diet, 10 days. The method, then:
Cholesterol lowering in fat-fed hamsters
Male golden hamsters kept individually were pre-treated for 7 days with a diet containing grated coconut (40 cal. % fat). The animals were then divided into groups each comprising 5 animals. During the treatment the animals were maintained on the same diet. Each test substance was firstly homogenized in 9 ml of water and subsequently mixed with the milled diet. The controls received only feed converted into a paste with water. The animals were treated for 10 days with a test substance dosage of 200 μmol (about 70-120 mg/kg/day). Blood samples (200 μl) were removed via the jugular vein under light anaesthesia on the last day of the pretreatment and one day after the last administration of test substance. The plasma cholesterol concentration was determined using a colorimetric enzyme method. The plasma lipoproteins were separated by exclusion chromatography (Hennes et al., Science Tools, 36, 1992, 10-12). The total cholesterol was determined in each fraction using a fluorometric enzyme method (Gamble et al., J. Lipid Res., 19, 1978, 1068-1071) in order to calculate the amount of cholesterol in the LDL and HDL fractions. The activity on plasma cholesterol and LDL and HDL cholesterol, expressed in percent of the control animals, for the products of Examples 8a and 12 is reproduced in the following Table: […]

The target of experiment [2] is T1, human liver microsomal 2,3-oxidosqualene-lanosterol cyclase (OSC) (Homo sapiens, UniProt P48449).
T1 construct: Liver microsomes from a healthy volunteer were prepared in sodium phosphate buffer (pH 7.4); from tissue; host or cells: liver microsomes from a healthy human volunteer
T1 sequence (P48449 1-732): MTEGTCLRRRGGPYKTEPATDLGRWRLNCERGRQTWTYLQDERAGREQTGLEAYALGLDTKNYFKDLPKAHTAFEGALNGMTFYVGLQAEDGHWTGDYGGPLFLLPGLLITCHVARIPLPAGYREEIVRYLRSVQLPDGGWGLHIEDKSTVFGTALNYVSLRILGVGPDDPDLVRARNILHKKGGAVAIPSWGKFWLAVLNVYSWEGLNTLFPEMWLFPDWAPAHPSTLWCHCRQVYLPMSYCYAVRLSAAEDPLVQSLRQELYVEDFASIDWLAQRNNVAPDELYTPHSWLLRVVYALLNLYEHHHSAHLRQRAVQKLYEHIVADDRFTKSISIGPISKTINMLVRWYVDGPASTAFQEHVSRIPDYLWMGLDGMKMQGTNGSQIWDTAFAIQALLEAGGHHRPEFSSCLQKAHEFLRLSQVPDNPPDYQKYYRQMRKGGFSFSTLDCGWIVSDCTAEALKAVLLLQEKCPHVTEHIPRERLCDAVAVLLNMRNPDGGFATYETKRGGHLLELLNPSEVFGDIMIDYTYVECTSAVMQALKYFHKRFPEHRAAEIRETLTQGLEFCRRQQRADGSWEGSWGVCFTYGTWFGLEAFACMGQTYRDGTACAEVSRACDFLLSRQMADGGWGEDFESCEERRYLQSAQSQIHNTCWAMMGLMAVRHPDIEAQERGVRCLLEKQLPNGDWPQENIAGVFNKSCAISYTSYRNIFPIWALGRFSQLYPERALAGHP
In words: Inhibition of human liver microsomal 2,3-oxidosqualene-lanosterol cyclase (OSC). It counts as biochemical. To be noted: for inhibition at 0.1 µM: 100 nM test substance, 1 hour at 37° C., against controls; for IC50: pH 7.4, 1 hour at 37° C., read-out: IC50 (OSC, conversion of MOS into lanosterol). The method, then:
Inhibition of human liver microsomal 2,3-oxidosqualene-lanosterol cyclase (OSC)
Liver microsomes from a healthy volunteer were prepared in sodium phosphate buffer (pH 7.4). The OSC activity was measured in the same buffer which also contained 1 mM EDTA and 1 mM dithiothreitol. The microsomes were diluted to 0.8 mg/ml protein in cold phosphate buffer. Dry [^14 C]R,S-monooxidosqualene (MOS; 12.8 μCi/mmol) was diluted to 20 nCi/μl with ethanol and mixed with phosphate buffer-1% BSA (Bovine Serum Albumin). A stock solution of 1 mM test substance in DMSO was diluted to the desired concentration with phosphate buffer-1% BSA. 40 μl of microsomes were mixed with 20 μl of the solution of the test substance and the reaction was subsequently started with 20 μl of the [^14 C]R,S-MOS solution. The final conditions were: 0.4 mg/ml of microsomal proteins and […] of [^14 C]R,S-MOS in phosphate buffer, pH 7.4, containing 0.5% albumin, DMSO <0.1% and ethanol <2%, in a total volume of 80 μl.
After 1 hour at 37° C. the reaction was stopped by the addition of 0.6 ml of 10% KOH-methanol, 0.7 ml of water and 0.1 ml of hexane:ether (1:1, v/v) which contained 25 μg of non-radioactive MOS and 25 μg of lanosterol as the carrier. After shaking 1 ml of hexane:ether (1:1, v/v) was added to each test tube, these were again shaken and then centrifuged. The upper phase was transferred into a glass test tube, the lower phase was again extracted with hexane:ether and combined with the first extract. The entire extract was evaporated to dryness with nitrogen, the residue was suspended in 50 μl of hexane:ether and applied to a silica gel plate. Chromatographic separation was effected in hexane:ether (1:1, v/v) as the eluent. […] After drying radioactive MOS and lanosterol were observed on the silica gel plate. The ratio of MOS to lanosterol was determined from the radioactive bands in order to determine the OSC inhibition.
The test was carried out on the one hand with a constant test substance concentration of 100 nM and the percentage OSC inhibition against controls was calculated. In addition, the test was carried out with different test substance concentrations and subsequently the IC50 value was calculated, i.e. the concentration required to reduce the conversion of MOS into lanosterol to 50% of the control value.
(Microsomes from liver hold many membrane-bound enzymes, among them those of drug oxidation.)

Where [3] appears, read: 24 hrs., read-out: IC50 for C. albicans after 24 hrs. (growth inhibition).
Setting [4] is: 48 hrs., read-out: IC50 for C. albicans after 48 hrs. (growth inhibition).

≈ marks a conversion by molar mass, not a printed value. Like-named read-outs stand apart in the source and are kept apart here.

The term IC50 denotes the concentration that gives 50% inhibition. Take `C=CCN(C)CCCCCCOc1ccc2c(c1)N=CNC2c1ccc(Br)cc1` (racemic) [Example 34, (RS)-Allyl-[6-[4-(4-bromo-phenyl)-3,4-dihydro-quinazolin-7-yloxy]-hexyl]-methyl-amine]: the IC50 with Cryptococcus neoformans is under 0.32 µg/mL; in the experiment on Candida albicans (setting [3]), 1.6 µg/mL (≈ 3.51 µM); with Candida albicans (setting [4]), 6.5 µg/mL (≈ 14.2 µM); in the experiment with Aspergillus fumigatus, 3.9 µg/mL (≈ 8.54 µM).
One may read the inhibition as the percentage by which the read-out fell short of the control. A higher inhibition goes with strong suppression. Take `C=CCN(C)CCCCCCOc1ccc2c(-c3ccc(Br)cc3)nsc2c1` [Example 1, allyl-[6-[3-(4-bromo-phenyl)-benzo[d]isothiazol-6-yloxy]-hexyl]-methyl-amine]: in experiment [1], the “HDL cholesterol (plasma, percent of control animals)” value is -27%. The “LDL cholesterol (plasma, percent of control animals)” value in experiment [1] was -36%. For the same molecule, the “Total cholesterol (plasma, percent of control animals)” value in experiment [1] is reported as -33%. Further, the IC50 was under 0.32 µg/mL in the experiment with Cryptococcus neoformans; under 0.32 µg/mL in the experiment with Candida albicans (setting [3]); 3.6 µg/mL (≈ 7.84 µM) with Candida albicans (setting [4]); 3.9 µg/mL (≈ 8.49 µM) with Aspergillus fumigatus; 3.3 nM in experiment [2]. In experiment [2], this molecule displayed an inhibition at 0.1 µM of 96%.
For `CN(CCCCCCOc1ccc2c(-c3ccc(Br)cc3)nccc2c1)C1CC1` [Example 24, [6-[1-(4-bromo-phenyl)-isoquinolin-6-yloxy]-hexyl]-cyclopropyl-methyl-amine], the IC50 in the experiment on Cryptococcus neoformans was under 0.32 µg/mL; in the experiment with Candida albicans (setting [3]), under 0.32 µg/mL; in the experiment with Candida albicans (setting [4]), 1.4 µg/mL (≈ 3.09 µM); in the experiment with Aspergillus fumigatus, 1.9 µg/mL (≈ 4.19 µM); in experiment [2] it was 1.6 nM. The molecule further returned an inhibition at 0.1 µM in experiment [2] of 98%.
Take `C=CCN(C)CCCCCCOc1ccc2c(-c3ccc(Br)cc3)nncc2c1` [Example 29a, allyl-[6-[1-(4-bromo-phenyl)-phthalazin-6-yloxy]-hexyl]-methyl-amine]: the IC50 with Cryptococcus neoformans is under 0.32 µg/mL; with Candida albicans (setting [3]) it was under 0.32 µg/mL; with Candida albicans (setting [4]) it was 1.1 µg/mL (≈ 2.42 µM); with Aspergillus fumigatus, 0.37 µg/mL (≈ 0.814 µM).

Source of the values: patent US5856503A, “Aminoalkyl-substituted benzo-heterocyclic compounds” (Hoffmann-La Roche Inc., priority 1995, dated 1999).
